The values below come from patent US20230151432A1, “KIF18A INHIBITORS FOR TREATMENT OF NEOPLASTIC DISEASES” (AMGEN INC., priority 2020, published 2023).

The test system of data set [1] is human bone marrow mononuclear cells (HBMNC). The data set is described as follows: BrdU cell cycle analysis and live cell count in normal cells. Format: cell-based. To be noted: 96 h; ispinesib 0.05 μM, paclitaxel 0.05 μM, palbociclib 1 μM.
Data set [2] deals with human mammary epithelial cells (HMEC). The data set is described as follows: BrdU incorporation assay in normal cells. Format: cell-based. To be noted: 48 hours. As to the method: (§1) The effect KIF18A inhibitor treatment has on proliferation of normal somatic cells (e.g., not neoplastic cells) was tested by assaying proliferation of human bone marrow mononuclear cells (HBMNCs), primary human foreskin fibroblast cells (hFSF) and human mammary epithelial cells via a 5-bromo-2′-deoxyuridine (BrdU) incorporation assay in which BrdU, an analog of the nucleoside thymidine, is used to identify proliferating cells (Payton et. al., Molecular Cancer Therapeutics, 17(12):2575-85 (2018)). Cells were analyzed on BD LSRFortessa flow cytometer using BD FACSDiva software (BD Biosciences), and post-acquisition data analysis was performed using FSC-Express software (De Novo). The percentage of BrdU positive gated events on the stacked DNA content histograms were reported.

The subject of data set [3] is human foreskin fibroblast (hFSF) cells. Kind of data set: BrdU incorporation assay in normal cells. Format: cell-based. To be noted: 48 hours. Here is the method:
as §1
(In general: Dividing cells build labelled thymidine or BrdU into new DNA.)

Data set [4] relates to human bone marrow mononuclear cells (HBMNC). Kind of data set: BrdU cell cycle analysis and live cell count in normal cells. The data set is classed as cell-based. Here is the method: as §1
To further examine the effects of KIF18A inhibitor treatment on HBMNC, two normal donors were assessed using the BrdU coupled cell cycle assay and cell count assay (96 hours) was. […] In particular, the amount of BrdU-stained proliferating cells treated with Ispinesib, paclitaxel, or a CDK 4/6 inhibitor (palbociclib) was far less than the amount of vehicle control-treated BrdU-stained cells. […] KIF18A inhibitor treatment was also analyzed for impact on live cell count. After 96 hours, live cells were counted by Vi-CELL XR Cell Viability Analyzer (Beckman Coulter).
To investigate whether KIF18A inhibitors could circumvent this normal cell toxicity barrier, we examined the effects of Compounds C9 and C11 on a panel of cycling normal somatic cell types. First, we treated human bone marrow mononuclear cells (HBMNC) from two normal donors with DMSO, Compound C9 and C11 at 1 μM, ispinesib at 0.05 μM, paclitaxel at 0.05 μM, or palbociclib at 1 μM for 48 h (cell cycle) or 96 h (cell growth).
BrdU and cell cycle analysis. Human bone marrow mononuclear cells (HBMNCs) from two normal donors (#37612, #37534) were cultured for 8 days in defined media as previously described (Payton et al 2018). HBMNCs were seeded in 24-well plate at 1.2×10^6 cells per well in duplicate plates. Cells were treated with DMSO, Compound C9 (1 μM), Compound C11 (1 μM), ispinesib (0.05 μM), paclitaxel ([…]), or palbociclib (1 μM). Cells were collected at 48 h (cell cycle) and 96 h (cell growth). The first set of plates were pulsed with BrdU for 2 h and processing for BrdU cell cycle analysis as previously described (Payton et al 2018). Cells were analyzed on BD LSRFortessa flow cytometer running BD FACSDiva software and post-acquisition data analysis was performed using FSC-Express software. Data was reported for the percentage of BrdU and subG1 gated populations. The second set of plates were collected, and cells counted using Vi-CELL XR Cell Viability Analyzer (Beckman Coulter).

Data set [5] concerns OVCAR-8 tumors. The data set is described as follows: OVCAR-8 Tumor Xenograft Efficacy Study (IP). Format: in vivo, mouse. As to the method:
(§2) Animals were dosed IP daily with vehicle alone, C9 (50 or 100 mg/kg), or C12 (25 or 50 mg/kg). […] Tumor volume and body weight assessment performed as described above. After the final dose on day 46, plasma pharmacokinetic analysis was performed as described above except blood was drawn by retro-orbital bleed method.

The subject of data set [6] is OVCAR-3 tumors. Kind of data set: OVCAR-3 Tumor Xenograft Efficacy Study (IP). Particulars: 25 mg/kg IP once daily for 18 consecutive days.
Procedure: Mice were injected with human OVCAR-3 cells (5.0×10^6) subcutaneously in the right flank. Animals with established tumors were randomized into four groups (n=10 per group) with average tumor volume of 130 mm^3. […] Treatment started on day 24 post-tumor implantation and treatment terminal on day 42. Tumor volumes and body weights were recorded twice per week using a digital caliper and analytical lab scale, respectively. […] The percentage of tumor growth inhibition (% TGI) was calculated as % TGI relative to vehicle control: % TGI=100−[(Treated−Initial Volume)/(Control−Initial Volume)×100]. The percentage of tumor regression (% TR) was calculated as % TR compared final tumor volume to the initial tumor volume: % TR=100−[(Final Volume)/(Initial Volume)×100]. Data was graphed using GraphPad Prism 7.05. Statistical analysis was performed on treatment groups for tumor growth and blood counts using repeated measures ANOVA and one-way ANOVA, respectively, followed by Dunnett's multiple comparisons test.
The subject of data set [7] is MDA-MB-157 cells. Kind of data set: pH3 and PCM spot EC50 determination. To be noted: pH3 and PCM spot EC50 values.
A short description of data set [8]: Tolerability (body weight, blood counts) in tumor-bearing nude mice. To be noted: 18 days. The data set is classed as in vivo, mouse. Here is the method: Female athymic nude mice were injected with 5×10^6 cells in 0.1 mL subcutaneously in the right flank. After tumors were established (average tumor volume of 150 mm^3), animals were randomized into 4 treatment groups (vehicle alone, KIF18A inhibitor at 10, 30, or 100 mg/kg) with 10 animals per group and treated orally once per day (PO, QD) starting on day 25 post-tumor implantation. Tumor measurement was calculated from the length, width and height of tumors measured with a PRO-MAX electronic digital caliper (Japan Micrometer Mfg. Co. LTD). The tumor volume was calculated as [L×W×H] and expressed in mm^3. Tumor volume and animal body weight measurements were determined twice per week (study start day 25, study end day 45). A single mouse was removed from the study (KIF18A inhibitor 30 mg/kg group) due to abdominal distention, a finding likely unrelated to compound.
Data was plotted using GraphPad Prism software (V7.0.4), tumor volume and body weight data are expressed as means plus or minus standard error of the mean and plotted as a function of time. Statistical significance of observed differences between growth curves were calculated using SLACR package (v.1.0.3). Statistical significance for tumor regressions were performed by paired Student's t-Test on the initial and final tumor volumes with significant tumor regression p-values (***p≤0.0001) for all three KIF18A inhibitor treatment groups. KIF18A inhibitor dose 10 mg/kg (81% regression, 5 of 10 tumor-free), 30 mg/kg (98% regression, 8 of 9 tumor-free), and 100 mg/kg (97% regression, 7 of 10 tumor-free).
Female athymic nude mice were injected with 5×10^6 OVCAR-8 cells in 0.1 mL subcutaneously in the right flank. […] Tumor volume and animal body weight measurements were determined twice per week (study start day 25, study end day 47). Tumor measurements, formulas, and regression analysis as described above for FIGS. 5A-5B. Data was plotted using GraphPad Prism software (V7.0.4), tumor volume and body weight data are expressed as means plus or minus standard error of the mean and plotted as a function of time. Statistical significance of observed differences between growth curves were calculated using SLACR package (v.1.0.3).
(§3) Data was graphed using GraphPad Prism 7.05.
(§4) Tumor volume and body weight assessment performed as described above. After the final dose on day 36, plasma pharmacokinetic analysis was performed as described above. All data analysis was performed as described above.
as §2

The nature of data set [9]: Terminal plasma pharmacokinetic analysis in tumor-bearing mice. The data set is classed as in vivo, mouse. As to the method:
as §3, §4, §2

Data set [10] concerns the target T1, mouse KIF18A (residues 1-467) (Mus musculus, UniProt Q91WD7).
T1 construct: mouse KIF18A (residues 1-467, 4 nM); made in house
The data set is described as follows: KIF18A MT-ATPase motor activity, ADP-Glo luminescence assay (Example 19). The data set is classed as biochemical. As to the method: (§5) A trio of KIF18A inhibitors (Compound C9, Compound C11, and Compound C12) were synthesized and tested in vitro for KIF18A inhibitory activity. […] The values represent mean t SEM from three independent experiments. […] As in vivo studies in mice were planned, the mouse KIF18A inhibitory effects of Compound C9 and C12 were assayed.
(§6) KIF18A compounds C9, C11, C12 were 2-fold serially diluted over a 22-point concentration range in DMSO using 384-well plate (Corning). Recombinant truncated kinesin motor proteins (human KIF18A (residues 1-467, 4 nM), mouse KIF18A (residues 1-467, 4 nM)) were expressed and purified. ADP-Glo luminescence assay (Promega) was used to measure the MT-ATPase motor activity. Porcine brain MTs were procured from Cytoskeleton Inc. Compounds were pre-incubated for <30 min in reaction buffer (15 mM Tris, pH 7.5, 10 mM MgCl2, 0.01% Pluronic F-68, 2% DMSO, 1 μM paclitaxel, 30 μg/mL MTs) with motor proteins at concentrations indicated above, 30 μM ATP was added to initiate the enzymatic reaction for 15 min at room temperature (RT). ADP-Glo reagents were added according to manufactures protocol, the luminescence intensity proportional to ADP present was measured using an EnVision plate reader (Perkin Elmer). Raw luminescence signal data was normalized to POC (percentage of positive control) and then Activity (%) was computed [POC=100×(sample signal−negative control signal)+(positive control signal−negative control signal). Activity (%)=POC−100]. The positive control (enzyme+substrate) and negative control (substrate alone) had equivalent concentrations of DMSO. Curve-fitting and IC50 values were determined by 4-parameter non-linear regression equation (variable slope) using GraphPad Prism 7.05 (GraphPad Software).
In general terms: In ADP-Glo the light output rises with the ADP produced.

In data set [11] the target is T2, human KIF18A (residues 1-467) (Homo sapiens, UniProt Q8NI77).
T2 construct: human KIF18A (residues 1-467, 4 nM); made in house
T2 sequence (Q8NI77 1-467): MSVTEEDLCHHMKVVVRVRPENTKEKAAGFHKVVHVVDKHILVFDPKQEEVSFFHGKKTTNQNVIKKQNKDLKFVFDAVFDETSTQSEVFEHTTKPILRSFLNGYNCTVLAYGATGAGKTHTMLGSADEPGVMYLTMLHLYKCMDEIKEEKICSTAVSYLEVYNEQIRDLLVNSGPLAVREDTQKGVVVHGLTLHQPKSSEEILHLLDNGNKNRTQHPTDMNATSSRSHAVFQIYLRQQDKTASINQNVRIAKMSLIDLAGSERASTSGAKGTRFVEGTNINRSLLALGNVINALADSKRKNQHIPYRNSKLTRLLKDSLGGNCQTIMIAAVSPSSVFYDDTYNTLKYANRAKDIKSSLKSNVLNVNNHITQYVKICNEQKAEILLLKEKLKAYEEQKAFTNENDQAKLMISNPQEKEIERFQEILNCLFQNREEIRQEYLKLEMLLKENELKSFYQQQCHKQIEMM
T2 sequence (P02550 whole entry partner, the tested form may be a part): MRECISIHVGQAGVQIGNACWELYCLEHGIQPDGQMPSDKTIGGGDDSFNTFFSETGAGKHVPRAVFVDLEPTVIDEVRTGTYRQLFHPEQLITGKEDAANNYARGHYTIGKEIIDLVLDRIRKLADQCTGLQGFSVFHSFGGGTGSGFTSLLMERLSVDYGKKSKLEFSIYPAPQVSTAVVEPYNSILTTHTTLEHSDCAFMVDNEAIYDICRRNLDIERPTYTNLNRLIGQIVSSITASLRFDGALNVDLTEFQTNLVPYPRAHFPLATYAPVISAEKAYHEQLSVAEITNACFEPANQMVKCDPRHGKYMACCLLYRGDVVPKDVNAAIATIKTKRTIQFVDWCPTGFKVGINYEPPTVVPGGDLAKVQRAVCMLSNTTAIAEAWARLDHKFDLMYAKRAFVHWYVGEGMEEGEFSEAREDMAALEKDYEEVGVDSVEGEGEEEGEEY
T2 sequence (P02554 whole entry partner, the tested form may be a part): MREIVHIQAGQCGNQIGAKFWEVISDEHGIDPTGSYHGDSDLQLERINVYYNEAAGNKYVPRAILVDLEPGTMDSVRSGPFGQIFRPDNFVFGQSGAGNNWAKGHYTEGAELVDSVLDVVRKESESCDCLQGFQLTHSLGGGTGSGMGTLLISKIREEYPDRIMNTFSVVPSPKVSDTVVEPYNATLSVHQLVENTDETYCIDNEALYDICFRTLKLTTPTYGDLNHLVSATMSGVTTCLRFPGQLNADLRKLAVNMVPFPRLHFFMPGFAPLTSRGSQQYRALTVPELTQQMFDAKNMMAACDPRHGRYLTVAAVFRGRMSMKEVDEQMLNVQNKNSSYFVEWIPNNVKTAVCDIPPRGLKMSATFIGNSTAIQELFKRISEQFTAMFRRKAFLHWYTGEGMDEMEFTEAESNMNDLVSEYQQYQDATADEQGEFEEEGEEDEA
Described as above. Format: biochemical. Here is the method: as §5, §6

Setting [12] is: OVCAR-3 study, C9 100 mg/kg, C12 25 mg/kg IP daily.

T1 sequence (Q91WD7 1-467): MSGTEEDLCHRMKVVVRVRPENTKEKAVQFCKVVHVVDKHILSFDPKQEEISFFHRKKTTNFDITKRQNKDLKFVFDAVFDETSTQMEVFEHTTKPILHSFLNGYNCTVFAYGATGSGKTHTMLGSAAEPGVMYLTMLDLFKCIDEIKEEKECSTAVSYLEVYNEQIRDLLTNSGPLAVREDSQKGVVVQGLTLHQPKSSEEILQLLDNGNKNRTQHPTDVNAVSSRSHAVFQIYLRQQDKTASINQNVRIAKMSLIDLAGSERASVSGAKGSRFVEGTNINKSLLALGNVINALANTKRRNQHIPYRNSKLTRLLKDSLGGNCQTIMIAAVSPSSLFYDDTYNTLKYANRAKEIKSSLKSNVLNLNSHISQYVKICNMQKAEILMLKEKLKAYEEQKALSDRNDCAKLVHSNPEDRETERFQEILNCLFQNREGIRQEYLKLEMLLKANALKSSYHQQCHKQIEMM
T1 sequence (P02550 whole entry partner, the tested form may be a part): as the sequence (P02550 whole entry partner, the tested form may be a part) above
T1 sequence (P02554 whole entry partner, the tested form may be a part): as the sequence (P02554 whole entry partner, the tested form may be a part) above

On to `Cc1ccc(C(=O)N(CCCN)[C@@H](c2nc3cc(Cl)ccc3c(=O)n2Cc2ccccc2)C(C)C)cc1` [Ispinesib, reference compound], for which the “reduction in cell growth” value in data set [1] was roughly 88%. Further, the “BrdU incorporation relative to DMSO treated cells” value in [2] and in data set [3] was “decrease in BrdU incorporation” each time. The “cell cycle DNA content profiles” value in [4] (48 h, C9, C11, palbociclib 1 μM, ispinesib 0.05 μM, paclitaxel) is given as “marked effects on cell cycle DNA content profiles”. Besides, the “BrdU incorporation (cell cycle analysis) relative to DMSO/vehicle control” value is given as “far less” in data set [4] (two normal donors, 48 h, C9, C11, palbociclib 1 μM, ispinesib 0.05 μM, paclitaxel) and “clearly cytotoxic” in [4] (two normal donors, 48 h, C9, C11, palbociclib 1 μM, ispinesib 0.05 μM, paclitaxel, listed as ispinesib). For the same molecule, in data set [4] (two normal donors, 96 hours), the “live cell count relative to vehicle control” value is on record as “lower cell count”.

Regarding `C[C@@H]1CN(c2cccc(NC(=O)c3ccc(NS(=O)(=O)CCO)cc3N3CCC4(CC3)CC4)n2)CCO1` [Compound C12, (R)-4-((2-Hydroxyethyl)sulfonamido)-N-(6-(2-methylmorpholino)pyridin-2-yl)-2-(6-azaspiro[2.5]octan-6-yl)benzamide], the tumor regression in data set [5] (25 mg/kg IP once daily for 18 consecutive days) turned out to be 19%; in [5] (50 mg/kg IP once daily for 18 consecutive days), 75%; in data set [6] it was 46%. Moreover, the “improvement of cell potency relative to a control compound” value in [7] was greater than 120 fold. Further, the “tolerability (body weight)” value in data set [8] (CAL-51 study, C9 100 mg/kg, C12 25 mg/kg IP daily) is reported as “well-tolerated”; in data set [8] (OVCAR-8 study, C9 50 or 100 mg/kg, C12 25 or 50 mg/kg IP daily), “well-tolerated”. Further, in data set [8] (OVCAR-3 study, 25 mg/kg IP daily, p=0.043), the monocyte count entry is recorded as “decrease on monocytes”. For the same molecule, the “body weight loss or changes in blood counts” value in data set [8] (setting [12]) is given as “no evidence of body weight loss or changes in blood counts”. The tolerability result in data set [8] (setting [12]) was “well-tolerated”. In addition, the “plasma AUC in OVCAR-8 study relative to the other efficacy studies” value in data set [9] (at matched doses) worked out at 2.8 fold. The AUC in data set [9] (nude, mouse, plasma, OVCAR-3 study, 25 mg/kg IP, after the final dose) turned out to be 53 µM·h. Moreover, the IC50 in data set [10] worked out at 39 nM; in data set [11] it was 40 nM.

As usually defined, the AUC is the area under the concentration-time curve, a measure of exposure. A lower AUC goes with low exposure. By IC50 is commonly meant the point on the concentration scale where inhibition reaches its midpoint. A low value points to greater potency in that assay.
